These are literature values, as cited in patent publication US20030031589A1, “Control of gaseous sterilisation” (priority 2002, published 2003).

Each structure is given as a SMILES string. Read-outs that look alike come from different tables or passages of the source.

One series deals with bacillus subtilis. The note with it: aqueous solutions; 'D' values depend on concentration and temperature.
For series [1] the following is noted: high relative humidity.

Take `OO` [hydrogen peroxide]: in the series with bacillus subtilis, the sporicidal activity result is “sporicidal”.
Turning to `C=O` [formalin vapour, formaldehyde], the “effectiveness of vapour vs relative humidity” value in series [1] is “more effective at high relative humidity”.
In the case of `CC(=O)OO` [Peracetic vapour, peracetic acid], the effectiveness of vapour result with spores (RH of 20%) is on record as “ineffective”; in the series with spores (RH of 80%) it was “effective”.
